# Results as given in patent US20230124862A1, “BISMUTH THIOL COMPOUNDS AND COMPOSITIONS AND METHODS OF TREATING MICROBIAL CO-INFECTIONS” (Microbion Corporation, priority 2020, published 2023).
# Read-outs that look alike come from different tables or passages of the source.
# Experiments:
# Haemophilus influenzae [1] = conditions: H. influenzae MMX 1224 (ATCC 49247); in µg/mL; cited from earlier work
# Haemophilus influenzae [2] = assay: Broth microdilution MIC, Haemophilus influenzae clinical isolates; assay type: cell-based
# [3] = system: Anaerobes (Bacteroides fragilis, Clostridium difficile); conditions: cited from earlier work
# [4] = system: Anaerobes (Bacteroides fragilis, Clostridium difficile); assay: Agar dilution MIC (Example 11); assay type: cell-based; conditions: read-out: MIC
# Procedure: The susceptibility of anaerobic bacteria was determined by agar dilution using Brucella Agar (BD/BBL; Lot No. 5237692) supplemented with 5 μg/mL hemin (Sigma, St. Louis, Mo.; Lot No. 108K1088), 1 μg/mL Vitamin K1 and 5% (v/v) laked sheep blood (Cleveland Scientific, Bath, Ohio; Lot No. 322799).
# Agar Dilution MIC Testing (Anaerobic Bacteria and Gonococci): MIC values for anaerobic bacteria were determined using a reference agar dilution method as described by CLSI (6). Organisms were grown at 35° C. in the Bactron II Anaerobic Chamber (Shel Lab, Cornelius, Oreg.) for approximately 48 hr prior to the assay. Drug dilutions and drug-supplemented agar plates were prepared manually per CLSI (6). The plates were allowed to stand at room temperature for 1 hr to allow the agar surface to dry and pre-reduced for approximately 1 hr in the anaerobe chamber prior to inoculation. Each isolate was suspended to the equivalent of a 0.5 McFarland standard in Brucella broth using a turbidity meter (Dade Behring MicroScan, West Sacramento, Calif.). Each bacterial cell suspension was then diluted 1:10 in Brucella broth and transferred to wells in a stainless steel replicator block which was used to inoculate the test plates. The prongs on the replicator deliver approximately 1-2 μl of inoculum to an agar surface. The resulting inoculum spots contained approximately 1×10^5 CFU/spot. After the inoculum dried, the inoculated drug-supplemented agar plates and no drug growth control plates were incubated at 35° C. for 42-48 hr in the anaerobe chamber. The MIC was read per CLSI guidelines (6).
# Aspergillus spp. [5] = assay: Antifungal broth microdilution (Example 13); assay type: cell-based, A. niger, A. terreus, A. fumigatus, A. flavus
# Aspergillus spp. [6] = conditions: cited from earlier work
# S. aureus ATCC 29213 = assay: MIC control strain; conditions: QC organism, Example 13
# Candida krusei [7] = assay: Antifungal broth microdilution (Example 13); assay type: cell-based; conditions: C. krusei ATCC 6258, comparators, single value
# [8] = system: C. parapsilosis ATCC 22019; assay: Antifungal broth microdilution (Example 13), QC organism; assay type: cell-based, Candida parapsilosis; conditions: comparators, single value
# [9] = system: C. parapsilosis ATCC 22019; conditions: C. parapsilosis ATCC 22019, CLSI established QC range, cited from earlier work
# E. coli ATCC 25922 = assay: MIC control strain; conditions: QC organism, Example 13
# Candida spp. [10] = conditions: C. parapsilosis MMX 2323 (ATCC 22019), cited from earlier work
# Candida spp. [11] = assay: Broth microdilution MIC (Example 11); assay type: cell-based, C. parapsilosis, C. albicans, C. glabrata, C. tropicalis
# Candida krusei [12] = conditions: C. krusei ATCC 6258, CLSI established QC range, cited from earlier work
# [13] = system: Gram-positive organisms (S. aureus, S. pneumoniae); assay: Broth microdilution MIC with pulmonary surfactant (Survanta); assay type: cell-based, Staphylococcus aureus, Streptococcus pneumoniae
# [14] = system: Gram-positive organisms (S. aureus, S. pneumoniae); conditions: cited from earlier work
# [15] = C. difficile MMX 4381 (ATCC 700057)
# [16] = Bacteroides fragilis, ATCC25285, B. fragilis MMX 123 (ATCC 25285), QC
# [17] = C. difficile MMX 4381 (ATCC 700057), QC, CC^1
# [18] = C. difficile MMX 5680 (NCTC 13336), ribotype 027, CC^1 MET^R
# [19] = C. difficile MMX 5681 (NCTC 13307), ribotype 012, CC^R
# [20] = C. difficile MMX 8272, ribotype 255, CC^1
# [21] = C. difficile MMX 8279, ribotype 005, CC^R
# [22] = C. difficile MMX 8281, ribotype 010, CC^R
compound,measurement,setting,value
CC1(C)S[C@@H]2[C@H](NC(=O)[C@H](N)c3ccccc3)C(=O)N2[C@H]1C(=O)O [AMP],CLSI Quality Control Range (MIC),Haemophilus influenzae [1],2-8
same,MIC,"Haemophilus influenzae [2]; H. influenzae MMX 0797, BLNAR",4 µg/mL
same,MIC,Haemophilus influenzae [2]; H. influenzae MMX 1224 (ATCC 49247),2 µg/mL
same,MIC,Haemophilus influenzae [2]; H. influenzae MMX 1302,0.25 µg/mL
same,MIC,Haemophilus influenzae [2]; H. influenzae MMX 1304,0.25 µg/mL
same,MIC,Haemophilus influenzae [2]; H. influenzae MMX 1740,4 µg/mL
same,MIC,Haemophilus influenzae [2]; H. influenzae MMX 1741,4 µg/mL
same,MIC,"Haemophilus influenzae [2]; H. influenzae MMX 2795, BLNAR",4 µg/mL
same,MIC,"Haemophilus influenzae [2]; H. influenzae MMX 2796, BLNAR",2 µg/mL
same,MIC,"Haemophilus influenzae [2]; H. influenzae MMX 2798, BLNAR",4 µg/mL
same,MIC,"Haemophilus influenzae [2]; H. influenzae MMX 2799, BLNAR",4 µg/mL
same,MIC,Haemophilus influenzae [2]; H. influenzae MMX 5458,0.12 µg/mL
same,MIC,Haemophilus influenzae [2]; H. influenzae MMX 5461,0.5 µg/mL
same,MIC,Haemophilus influenzae [2]; H. influenzae MMX 5469,4 µg/mL
same,MIC,Haemophilus influenzae [2]; H. influenzae MMX 5494,0.12 µg/mL
same,MIC,Haemophilus influenzae [2]; H. influenzae MMX 5495,0.25 µg/mL
same,MIC,Haemophilus influenzae [2]; H. influenzae MMX 5499,0.25 µg/mL
Cc1ncc([N+](=O)[O-])n1CCO [Metronidazole],CLSI QC range of MIC,[3]; B. fragilis MMX 123 (ATCC 25285),(0.25-1) μg/mL
same,CLSI QC range of MIC,[3]; [15],(0.12-0.5) μg/mL
same,MIC,[4]; [16],0.5 µg/mL
same,MIC,[4]; [17],0.5 µg/mL
same,MIC,[4]; [18],> 64 µg/mL
same,MIC,[4]; [19],0.5 µg/mL
same,MIC,[4]; [20],0.5 µg/mL
same,MIC,[4]; [21],0.5 µg/mL
same,MIC,[4]; [22],8 µg/mL
CCc1c(Cl)c(O)c(Cl)c(O)c1C(=O)O[C@H]1[C@H](O)[C@H](OC)[C@H](OC/C2=C\C=C\C[C@H](O)/C(C)=C/[C@H](CC)[C@@H](O[C@@H]3OC(C)(C)[C@@H](OC(=O)C(C)C)[C@H](O)[C@@H]3O)/C(C)=C/C(C)=C/C[C@@H]([C@@H](C)O)OC2=O)O[C@@H]1C [Fidaxomicin],CLSI QC range of MIC,[3]; [15],(0.06-0.25) μg/mL
same,MIC,[4]; [16],> 64 µg/mL
same,MIC,[4]; [17],0.25 µg/mL
same,MIC,[4]; [18],4 µg/mL
same,MIC,[4]; [19],0.5 µg/mL
same,MIC,[4]; [20],0.5 µg/mL
same,MIC,[4]; [21],0.5 µg/mL
same,MIC,[4]; [22],0.5 µg/mL
C[C@@H]1[C@H](O)[C@@H](C)/C=C/C=C/C=C/C=C/C=C/C=C/C=C/[C@H](O[C@@H]2O[C@H](C)[C@@H](O)[C@H](N)[C@@H]2O)C[C@@H]2O[C@](O)(C[C@@H](O)C[C@@H](O)[C@H](O)CC[C@@H](O)C[C@@H](O)CC(=O)O[C@H]1C)C[C@H](O)[C@H]2C(=O)O [Amphotericin B],MIC 24 hr,Aspergillus spp. [5]; A. flavus ATCC 204304,0.5 µg/mL
same,MIC 48 hr,Aspergillus spp. [5]; A. flavus ATCC 204304,1 µg/mL
same,MIC 24 hr,Aspergillus spp. [5]; A. fumigatus ATCC MYA-3626,0.5 µg/mL
same,MIC 48 hr,Aspergillus spp. [5]; A. fumigatus ATCC MYA-3626,1 µg/mL
same,QC Range 48 hr,"Aspergillus spp. [6]; A. flavus ATCC 204304, CLSI established QC range",0.5-4
same,QC Range 48 hr,"Aspergillus spp. [6]; A. fumigatus ATCC MYA-3626, CLSI established QC range",0.5-4
same,MIC 24 hr,S. aureus ATCC 29213,>64
same,MIC 24 hr,Candida krusei [7]; 24 hr,0.5 µg/mL
same,MIC 48 hr,Candida krusei [7]; 48 hr,0.5 µg/mL
same,MIC 24 hr,[8]; 24 hr,0.5 µg/mL
same,MIC 48 hr,[8]; 48 hr,0.5 µg/mL
same,QC Range 24 hr,[9]; 24 hr,0.25-2
same,QC Range 48 hr,[9]; 48 hr,0.5-4
same,MIC 24 hr,E. coli ATCC 25922,>64
same,CLSI QC range of MIC,Candida spp. [10]; 24 hr,0.25 to 2 µg/mL
same,CLSI QC range of MIC,Candida spp. [10]; 48 hr,0.5 to 4 µg/mL
same,MIC,"Candida spp. [11]; C. albicans MMX 7039, Sensitive, incubation 24 hr","0.5, 0.5 μg/mL"
same,MIC,"Candida spp. [11]; C. albicans MMX 7039, Sensitive, incubation 48 hr","0.5, 0.5 μg/mL"
same,MIC,"Candida spp. [11]; C. albicans MMX 7055, Sensitive, incubation 24 hr",0.25 µg/mL
same,MIC,"Candida spp. [11]; C. albicans MMX 7055, Sensitive, incubation 48 hr",0.5 µg/mL
same,MIC,"Candida spp. [11]; C. glabrata MMX 7318, FLU^R, incubation 24 hr",0.5 µg/mL
same,MIC,"Candida spp. [11]; C. glabrata MMX 7318, FLU^R, incubation 48 hr",1 µg/mL
same,MIC,"Candida spp. [11]; C. glabrata miX 7086, FLU^R, incubation 24 hr",0.5 µg/mL
same,MIC,"Candida spp. [11]; C. glabrata miX 7086, FLU^R, incubation 48 hr",1 µg/mL
same,MIC,"Candida spp. [11]; C. parapsilosis MMX 2323 (ATCC 22019), QC, incubation 24 hr",0.5 µg/mL
same,MIC,"Candida spp. [11]; C. parapsilosis MMX 2323 (ATCC 22019), QC, incubation 48 hr",1 µg/mL
same,MIC,"Candida spp. [11]; C. parapsilosis MMX 7370, FLU^R, incubation 24 hr",0.5 µg/mL
same,MIC,"Candida spp. [11]; C. parapsilosis MMX 7370, FLU^R, incubation 48 hr",1 µg/mL
same,MIC,"Candida spp. [11]; C. parapsilosis MMX 7555, FLU^R, incubation 24 hr","0.5, 0.5 μg/mL"
same,MIC,"Candida spp. [11]; C. parapsilosis MMX 7555, FLU^R, incubation 48 hr","0.5, 0.5 μg/mL"
same,MIC,"Candida spp. [11]; C. tropicalis MMX 7247, FLU^R, incubation 24 hr",0.5 µg/mL
same,MIC,"Candida spp. [11]; C. tropicalis MMX 7247, FLU^R, incubation 48 hr",1 µg/mL
same,MIC,"Candida spp. [11]; C. tropicalis MMX 7248, FLU^R, incubation 24 hr",0.5 µg/mL
same,MIC,"Candida spp. [11]; C. tropicalis MMX 7248, FLU^R, incubation 48 hr",1 µg/mL
same,MIC,"Candida spp. [11]; C. tropicalis MMX 7360, FLU^R, incubation 24 hr","0.5, 0.5 μg/mL"
same,MIC,"Candida spp. [11]; C. tropicalis MMX 7360, FLU^R, incubation 48 hr","0.5, 0.5 μg/mL"
same,QC Range 24 hr,Candida krusei [12]; 24 hr,0.5-2
same,QC Range 48 hr,Candida krusei [12]; 48 hr,1-4
CCCCCCCCCC(=O)N[C@@H](Cc1c[nH]c2ccccc12)C(=O)N[C@H](CC(N)=O)C(=O)N[C@@H](CC(=O)O)C(=O)N[C@@H]1C(=O)NCC(=O)N[C@@H](CCCN)C(=O)N[C@@H](CC(=O)O)C(=O)N[C@H](C)C(=O)N[C@@H](CC(=O)O)C(=O)NCC(=O)N[C@H](CO)C(=O)N[C@@H]([C@H](C)CC(=O)O)C(=O)N[C@@H](CC(=O)c2ccccc2N)C(=O)O[C@@H]1C [daptomycin],effect of Survanta addition on MIC values,[13]; S. aureus and S. pneumoniae,increased
same,MIC,"[13]; S. pneumoniae ATCC 49619, 0 percent Survanta",0.06 µg/mL
same,MIC,"[13]; S. pneumoniae ATCC 49619, 1 percent Survanta",0.25 µg/mL
same,MIC,"[13]; S. pneumoniae ATCC 49619, 2.5 percent Survanta",1 µg/mL
same,MIC,"[13]; S. pneumoniae MMX 3162, 0 percent Survanta",0.12 µg/mL
same,MIC,"[13]; S. pneumoniae MMX 3162, 1 percent Survanta",0.25 µg/mL
same,MIC,"[13]; S. pneumoniae MMX 3162, 2.5 percent Survanta",0.25 µg/mL
same,MIC,"[13]; Staphylococcus aureus, ATCC29213, S. aureus ATCC 29213, 0 percent Survanta",0.5 µg/mL
same,MIC,"[13]; Staphylococcus aureus, ATCC29213, S. aureus ATCC 29213, 1 percent Survanta",16 µg/mL
same,MIC,"[13]; Staphylococcus aureus, ATCC29213, S. aureus ATCC 29213, 2.5 percent Survanta",32 µg/mL
same,MIC,"[13]; Staphylococcus aureus, ATCC29213, S. aureus ATCC 29213, 5 percent Survanta",> 32 µg/mL
same,MIC,"[13]; Staphylococcus aureus, ATCC29213, S. aureus ATCC 29213, 10 percent Survanta",> 32 µg/mL
same,MIC,"[13]; Staphylococcus aureus, ATCC43300, S. aureus ATCC 43300, 0 percent Survanta",0.25 µg/mL
same,MIC,"[13]; Staphylococcus aureus, ATCC43300, S. aureus ATCC 43300, 1 percent Survanta",8 µg/mL
same,MIC,"[13]; Staphylococcus aureus, ATCC43300, S. aureus ATCC 43300, 2.5 percent Survanta",16 µg/mL
same,MIC,"[13]; Staphylococcus aureus, ATCC43300, S. aureus ATCC 43300, 5 percent Survanta",16 µg/mL
same,MIC,"[13]; Staphylococcus aureus, ATCC43300, S. aureus ATCC 43300, 10 percent Survanta",> 32 µg/mL
same,CLSI acceptable MIC QC range,[14]; S. aureus ATCC 29213,(0.12-1) μg/mL
same,CLSI acceptable MIC QC range,[14]; S. pneumoniae ATCC 49619,(0.06-0.5) μg/mL
